Measured values from patent publication US20260216166A1, “COMPOUND FOR TREATMENT OF ERECTILE DYSFUNCTION” (Initiator Pharma A/S, priority 2023, published 2026).
Entries after “also recorded” stand apart in the source; their conditions may differ.

How the values were obtained:
[1] = system: diabetic db/db mice; assay: Erectile responses in type 2 diabetic db/db mice; assay type: in vivo, mouse; conditions: intravenous infusion 1 mg/kg, n=7, versus vehicle
Procedure: FIG. 1. Original traces show increased intracavernosal pressure induced by the cavernous nerve's electrical field stimulation (EFS). […] E-G) Frequency, duration, and magnitude of spontaneous erections after intravenous infusion of vehicle, IP2015 0.1 mg/kg, 1 mg/kg, or 10 mg/kg. The effect on EFS is reported in the supplementary data file. (H-J) Intravenous infusion of vehicle and IP2015 (1 mg/kg) in diabetic db/db mice. IP2015 increased H) frequency, I) duration and J) the magnitude of spontaneous erectile responses in db/db mice (n=7). The results are means±s.e.mean. *P<0.05 versus vehicle control.
To investigate the effects of IP2015 in a simple model of erectile dysfunction, before dissecting its underlying pharmacology in vivo, we assessed its effects in a type-2 diabetic mouse model. Type 2 diabetic db/db mice have decreased erectile function compared to normal C57BL/6 mice and heterozygous db/+ control mice.

[2] = system: rat corpus cavernosum strips; assay: Isometric tension of isolated rat corpus cavernosum strips
Procedure: For functional studies in corpus cavernosum strips, the penis was removed by cutting the crura corpora cavernosa at the point of adhesion to the lower pubic bone, and the corpora cavernosa were then dissected free. The penis was submerged immediately in ice-cold (4° C.) PSS. The tunica albuginea was carefully opened from its proximal extremity of the corpus cavernosum towards the penile shaft and the erectile tissue within the corpus cavernosum was microsurgically dissected free. Change in isometric tension of corpus cavernosum strips (0.5×0.5×3 mm) were investigated in a tissue organ bath system (750TOBS, Danish Myotechnology, Aarhus, Denmark). Silk ligatures were applied at both ends of the strip preparations, which were then suspended between two L-formed metal prongs in thermostatically controlled organ baths (5 ml, 37° C.) containing PSS aerated with a mixture of 5% CO2 in air (pH 7.4). The bath fluid was routinely changed every 20 min and replaced with fresh PSS, also kept at 37° C. During an equilibration period of 60 min, tension was adjusted until a mean stable tension of 1.2 mN was obtained, as described earlier.
To test the contractility of the preparations, they were exposed to a potassium physiological saline solution (KPSS) of 125 mM and phenylephrine (10^-6 M), after each contraction acetylcholine was administrated to check endothelium-dependent relaxations.
To investigate the effect of IP2015 on corpus cavernosum strips, the drug (10 9-3×10^-4 M) was administered either in preparations at baseline tension or contracted with phenylephrine (10^-6 M) in the absence or presence of L-NOARG (10 4 M), a NO synthase inhibitor, sildenafil (10^-7 M), a PDE5 inhibitor, a dopamine D1 receptor antagonist, SCH23390, and a dopamine D2 receptor antagonist, clozapine (10^-6 M). The effect of vehicle was also investigated.

[3] = system: male patients with ED; assay: Phase II single oral dose safety in male patients with ED; assay type: in vivo, human
Procedure: The study was an exploratory Phase II, randomised, placebo-controlled, double-blind, crossover study, investigating the effects of a single oral dose of IP2015 on erectile function in males with ED. A dose level of 10 mg was selected. Patients were enrolled into two cohorts. Both cohorts participated in two periods (Period 1 and Period 2) and received a single dose of IP2015 and a single dose of placebo.
The study evaluated the efficacy data from RigiScan assessments in male patients with ED and the clinical safety data from AE reporting, 12-lead ECGs, vital signs, physical examinations and clinical laboratory evaluations in male patients with ED.
Safety parameters were listed and summarised using descriptive statistics. Pharmacokinetic parameter estimates were calculated using noncompartmental methods. Pharmacokinetic data were listed for each subject/patient and summarised by descriptive statistics.

[4] = system: male subjects with erectile dysfunction (ED); assay: Treatment-emergent adverse events after repeat single oral doses in male subjects with ED; assay type: in vivo, human
Procedure: Treatment-related adverse events are adverse events which could either be possibly or probably related to the treatment.
130 subjects were divided into 3 groups upon which the study was conducted in parallel. Each subject was dosed on four occasions with either 5 mg IP2015, 10 mg IP2015 or matched placebo. In each group, subjects were randomised evenly to each of the three study treatments and received the same treatment at each visit.
There were three potential study treatments of 5 mg IP2015, 10 mg IP2015 or matched placebo. In each group, subjects were randomised evenly to each of the three study treatments and received the same treatment on each visit. IP2015 or matched placebo was administered once in the morning of Week 1 (Day 1), Week 2, Week 3, and Week 4 as an oral solution in the fasted state. The dose was taken with 240 ml of water at room temperature. Subjects had fasted 2 hours prior to dosing until 4 hours postdose. Water was allowed ad libitum except for 1 hour before and 1 hour after dosing.
Efficacy was assessed through the International Index of Erectile Function (IIEF)-15 questionnaire. The change from baseline in responses to questions of the IIEF-15 questionnaire, including questions regarding erectile function, orgasmic function, sexual desire, intercourse satisfaction and overall satisfaction domain scores, was determined at different time points of the study. RigiScan assessments during the stimulus assessment, and sperm count and motility by semen sample collection was used for efficacy evaluation. Safety was assessed through AE reporting, 12-lead ECG, vital signs, physical examinations and clinical laboratory evaluations. Pharmacokinetics was assessed by blood sampling.

[5] = overall, crossover 10 mg IP2015 and placebo
[6] = overall, crossover 10 mg IP2015 and placebo, 12 patients

COc1cc2ccc(OC3CC4CCC(C3)N4)cc2oc1=O (stereo not drawn) [IP2015, 7-[(8-azabicyclo[3.2.1]octan-3-yl)oxy]-3-methoxy-chromen-2-one]
frequency, duration, and magnitude of erectile responses [1]: significantly increased the frequency, duration, and magnitude of erectile responses; also recorded: increased the number of erections | relaxation of corpus cavernosum strips ([2]; added at basal tension, increasing concentrations): concentration-dependently induced relaxation; also recorded: induced concentration-dependent relaxations; also recorded: induces relaxations | IP2015 relaxation in preparations with and without endothelium ([2]; corpus cavernosum strips, n=5): observed in preparations with endothelium but not in preparations without endothelium | heart rate, increase from baseline ([3]; 10 mg, 8 hours postdose): 14.56 bpm | RR, PR, QRS, QT and QTcF intervals, IP2015 versus placebo ([3]; male patients with ED, 10 mg): no significant treatment-related differences | haematology, serum biochemistry or urinalysis data ([3]; male patients with ED, 10 mg): no significant treatment- or dose-related trends | standing and supine pulse rate ([3]; male patients with ED, 10 mg): apparent treatment-related increase | systolic blood pressure, diastolic blood pressure and oral temperature, IP2015 versus placebo ([3]; male patients with ED, 10 mg): no significant treatment-related differences | deaths or SAEs [3, 5]: No deaths or SAEs were reported | severity of TEAEs [3, 5]: All events were mild in severity | number of TEAEs [3, 6]: 19 | patients experiencing TEAEs [3, 6]: 9 (75.0%) | Any TEAE, number of events ([4]; 5 mg, N = 42): 61 | Any TEAE, subjects (%) ([4]; 5 mg, N = 42): 32 (76.2%) | Dizziness, number of events ([4]; 5 mg, N = 42): 3 | Dizziness, subjects (%) ([4]; 5 mg, N = 42): 3 (7.1%) | Headache, number of events ([4]; 5 mg, N = 42): 15 | Headache, subjects (%) ([4]; 5 mg, N = 42): 11 (26.2%) | Mild TEAE, number of events ([4]; 5 mg, N = 42): 56 | Mild TEAE, subjects (%) ([4]; 5 mg, N = 42): 29 (69.0%) | Moderate TEAE, number of events ([4]; 5 mg, N = 42): 5 | Moderate TEAE, subjects (%) ([4]; 5 mg, N = 42): 3 (7.1%) | Nausea, number of events ([4]; 5 mg, N = 42): 1 | Nausea, subjects (%) ([4]; 5 mg, N = 42): 1 (2.4%) | Related TEAE, number of events ([4]; 5 mg, N = 42): 19 | Related TEAE, subjects (%) ([4]; 5 mg, N = 42): 10 (23.8%) | Severe TEAE ([4]; 5 mg, N = 42): 0 | TEAEs, high dose compared to low dose ([4]; 10 mg versus 5 mg): slightly increased in the high dose compared to the low dose | Any TEAE, number of events ([4]; 10 mg, N = 43): 141 | Any TEAE, subjects (%) ([4]; 10 mg, N = 43): 34 (79.1%) | Dizziness, number of events ([4]; 10 mg, N = 43): 15 | Dizziness, subjects (%) ([4]; 10 mg, N = 43): 12 (27.9%) | Headache, number of events ([4]; 10 mg, N = 43): 27 | Headache, subjects (%) ([4]; 10 mg, N = 43): 16 (37.2%) | Mild TEAE, number of events ([4]; 10 mg, N = 43): 132 | Mild TEAE, subjects (%) ([4]; 10 mg, N = 43): 33 (76.7%) | Moderate TEAE, number of events ([4]; 10 mg, N = 43): 9 | Moderate TEAE, subjects (%) ([4]; 10 mg, N = 43): 7 (16.3%) | Nausea, number of events ([4]; 10 mg, N = 43): 15 | Nausea, subjects (%) ([4]; 10 mg, N = 43): 8 (18.6%) | Related TEAE, number of events ([4]; 10 mg, N = 43): 84 | Related TEAE, subjects (%) ([4]; 10 mg, N = 43): 23 (53.5%) | Severe TEAE ([4]; 10 mg, N = 43): 0 | severe side effects ([4]; any of the doses (5 mg, 10 mg)): No severe side effects were observed; also recorded: No severe TEAEs were present | treatment-emergent adverse effects versus placebo group ([4]; low-dose (5 mg)): comparable to the placebo group
